Tests used:
[1] = system: L929 mouse fibroblasts; test: Cytotoxicity study, MTT assay; assay type: cell-based
Method: L929 mouse fibroblasts were cultured under the standard conditions with which the skilled person is familiar. These cells were sown in 96-well cell culture plates at a density of 8000 cells/well and cultured for 24 h before they were used for toxicity experiments.
The toxicity of the polymers was determined on L929 mouse fibroblasts using the MTT assay in accordance with the method of Mosmann et al. [Mosmann, J. Immunol. Methods 65: 55-63 (1983)]. The polymer dilution series were prepared in DMEM containing 10% FCS and 2 mM glutamine and sterilized by filtration (0.2 μm, Schleicher & Schuell, Dassel). The pH and osmolarity of the solutions were corrected if required. After a pre-incubation of 24 h, the cells were treated with the polymer solutions and incubated for 1, 3, 12 and 24 h. The viability of the cells was quantified UV-photometrically by measuring the formazan concentration.
In a second series of experiments, the cells were generally only treated with the polymers for 1 h, after which they were washed and then cultured for a further 3, 12 and 24 h in PEI-free cell culture medium. The evaluation was carried out as described above.
The toxicity of the PEIs was determined in vitro on L929 mouse fibroblasts, which various standard organizations recommend as the standard cell culture model for determining the cytotoxicity and biocompatibility of polymers. […]

[2] = system: pig brain capillary endothelial cells; test: In-vitro transfection of primary cultures, β-galactosidase reporter gene; assay type: cell-based
Method: The cells, which were incubated at 37° C., 95% relative atmospheric humidity and 5% CO2, were passaged twice a week, after having reached confluence, using trypsin/EGTA solution (2.5% stock solution of trypsin, 50 mM solution of ethylene glycol tetraacetic acid, PBS, pH 7.4, in a ratio of 1:1:8). Since the cells detached from the substratum in cell clusters rather than individually, a ⅛ passage was carried out in each case. Cerebral capillary endothelial cells were isolated and cultured in accordance with the method of Bowman et al. and Mischek et al. [Mischek et al., Cell. Tiss. Res. 256: 221-226 (1989)]. […]
The ECV 304 cells and 3T3 mouse fibroblasts, which were sown in 3 cm^2 Petri dishes, and the primary endothelial cells, which were sown in 6-well culture plates, were washed with PBS, pH 7.4, immediately before the experiments and provided with new, serum-supplemented medium. […] The cells were subsequently incubated for 60 hours and the luciferase or β-galactosidase activity was determined in analogy with the manufacturer's instructions. […]
The transfection efficiency of the PEI complexes was determined both with cell lines (3T3 mouse fibroblasts and the human endothelial cell line ECV304) and with primary cultures (pig brain capillary endothelial cells). […]

polyethylenimine [LMW PEI]
cytotoxicity for fibroblasts as compared with that of HMW PEI [1]: markedly reduced | in-vitro maximum tolerable, noncytotoxic dose (MTD) of the complexes [2]: 90 μg/10 μg of DNA
